Structures are written as SMILES.

This data set is described as follows: gradient 5% acetonitrile 3 min, to 50% in 2 min, to 85% in 15 min, held 3 min, 100 µL/min. The note with it: column: Zorbax Extend-C18 2.1 x 50 mm; eluents: water / acetonitrile, 0.1% formic acid. Put shortly: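 Retention times come from adduct peaks that were picked computationally and then checked by hand. The standards, pure and pooled in mixtures of ~100 molecules, were run on a Zorbax Extend-C18 column (2.1 × 50 mm, 1.8 μm) at 100 μL/min with water and acetonitrile, each with 0.1% formic acid. Detection was by quadrupole time-of-flight mass spectrometry in positive and negative ionization mode, with a dead volume of 40 μL and a dwell volume of 900 μL.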
`CC1=C(c2ccc(F)cc2)S(=O)(=O)N=C1N1CCC(C(=O)NC(C)C)CC1` gave an RP-LC retention time of 741 s.

In turn, `O=C(CSc1nc(N2CCCCC2)nc2ccccc12)Nc1ccccc1` came in with an RP-LC retention time of 702 s.

Regarding `CCOc1ccc(N2CC(c3nc(-c4cc(OC)c(OC)c(OC)c4)no3)CC2=O)cc1` (centres undefined), the RP-LC retention time is 954 s.

In turn, `COc1ccc(NC(=O)C2CC2)c2ccccc12` registered an RP-LC retention time of 729 s.

With `CN(C)S(=O)(=O)c1ccc2c(c1)N(CC(=O)NCc1ccco1)C(=O)C1CCCCN21` (centres undefined), the RP-LC retention time came out at 820 s.

The compound `Cc1cc(N(C)C)nc(N2CCN(C(=O)c3ccc(-c4ccccc4)cc3)CC2)n1` yielded an RP-LC retention time of 758 s.

In the case of `CCOC(=O)CNC(=O)NCc1cccn1Cc1ccccc1F`, the RP-LC retention time turned out to be 772 s.

In the case of `C[C@H](NC(=O)/C(C#N)=C/c1cccc(Br)n1)c1ccccc1`, the RP-LC retention time worked out at 934 s.

With `CCOC(=O)c1cn(CC(=O)N2CCOc3ccc(C)cc32)c2nc(C)ccc2c1=O`, the RP-LC retention time turned out to be 836 s.

Turning to `O=C(c1ccco1)N1CCN(c2ccc(=O)n(-c3ccc(Cl)cc3)n2)CC1`, the RP-LC retention time worked out at 768 s.

On to `CCN1CCN(S(=O)(=O)c2cc(-c3nnc(C4CC4)o3)co2)CC1`, for which the RP-LC retention time is 587 s.

Compound `Cc1cc(C)cc(NC(=O)Cc2nnc(-c3ccc4ncccc4c3)o2)c1` yielded an RP-LC retention time of 786 s.

Compound `COc1ccc(-c2ccnc3nc(CC(C)C)nn23)cc1OC` displayed an RP-LC retention time of 824 s.

In the case of `Cc1ccc(CNC(=O)C2(C)CN(S(=O)(=O)c3ccccc3)CC(=O)N2c2ccc(F)cc2)cc1` (centres undefined), the RP-LC retention time stood at 942 s.

On to `CCCN1C(=O)Cc2ccccc2C1C(=O)NCc1ccco1` (centres undefined), for which the RP-LC retention time was 721 s.

For the compound `Cc1nc(-c2csc(S(=O)(=O)N3CCC(C(=O)Nc4ccc(F)cc4C)CC3)c2)no1`, the RP-LC retention time was determined as 886 s.

As to `CCOc1ccccc1C(=O)n1nc(C)c(S(=O)(=O)N2CCCCC2)c1C`, the RP-LC retention time was found to be 1160 s.

`COCCn1cc(CC(=O)Nc2cccc(SC)c2)c2cccnc21` displayed an RP-LC retention time of 787 s.

For `Cc1ccc(CNc2ccc3[nH]c(=O)[nH]c3c2)cc1`, the RP-LC retention time amounted to 579 s.

For the compound `COc1ccc(C2(C(=O)N3CCC(OCCOc4ccc(F)cc4)CC3)CC2)cc1`, the RP-LC retention time was determined as 997 s.

`O=C(c1cccc(Nc2c(-c3ccccc3)nc3cnccn23)c1)N1CCOCC1`: the RP-LC retention time was 652 s.

Consider `Cc1ccc(CNC(=O)CN2CCN(C(=O)Nc3ccc(F)cc3)CC2=O)o1`, for which the RP-LC retention time was found to be 695 s.

In the case of `COc1cccc(C(=O)N2CCC3(CC2)NC(=O)c2cc(Cl)ccc2N3C)c1`, the RP-LC retention time was determined as 800 s.

The compound `CN1CCCC1c1nc(C2CN(C(=O)c3cccn3C)C2)no1` (centres undefined) gave an RP-LC retention time of 548 s.

`CSc1cccc(NC(=O)N2CCC(N3CCN(Cc4cccc(F)c4)C(=O)C3=O)CC2)c1` had an RP-LC retention time of 779 s.

As for `Nc1cccc(N2CCn3c(nc4ccccc43)C2)c1`, the RP-LC retention time is 525 s.

For `COc1ccc(N2CCN(c3cc(SCC(=O)Nc4cc(C)cc(C)c4)ncn3)CC2)cc1`, the RP-LC retention time amounted to 1060 s.

In turn, `Fc1cccc(CN2CCO[C@@H](COc3ccccn3)[C@@H]2c2ccccc2)c1` yielded an RP-LC retention time of 898 s.

`Cc1ccc2nc(SCc3noc(CCC(=O)Nc4nc(-c5ccccc5)cs4)n3)[nH]c2c1` returned an RP-LC retention time of 802 s.

`CCc1nc2cc3c(cc2n1CC(=O)NC(C)c1ccccc1)OCCO3` (centres undefined) gave an RP-LC retention time of 651 s.

Take `CCOc1ccc2c(n1)CCN(C(=O)Nc1ccc(CC)cc1)C2`: the RP-LC retention time was 943 s.

As for `COCCCNC(=O)C1(c2ccc(NC(=O)c3ccc(Br)cc3)cc2)CCC1`, the RP-LC retention time was found to be 820 s.

Compound `Cc1ccc(-c2noc(Cc3nnc(-c4cc(F)cc(F)c4)o3)n2)cc1C` returned an RP-LC retention time of 1170 s.

On to `Cc1cc(CN2CCC(CNC(=O)C(=O)NCc3ccc4c(c3)OCO4)CC2)c(C)o1`, for which the RP-LC retention time worked out at 583 s.

Take `O=C1NCCCn2cc(S(=O)(=O)Nc3ccc(F)c(F)c3)cc21`: the RP-LC retention time was determined as 676 s.

As for `Cc1ccn2cc(-c3cccc(NS(=O)(=O)c4cc(C)c(C)cc4C)c3)nc2c1`, the RP-LC retention time amounted to 732 s.

The compound `N#Cc1ccc(C(=O)N2CCN(S(=O)(=O)c3cc(-c4noc(C5CCC5)n4)cs3)CC2)cc1` yielded an RP-LC retention time of 975 s.

With `CN(C)S(=O)(=O)c1ccc(COc2ccc(F)cc2)o1`, the RP-LC retention time was 875 s.

On to `O=C(C1CC1)N1CCN(S(=O)(=O)c2cc(-c3noc(C4CCC4)n3)cs2)CC1`, for which the RP-LC retention time turned out to be 926 s.

Consider `CCn1cc(-c2nc(C)c(C(=O)NC3CCCCC3)s2)c2cccnc21`, for which the RP-LC retention time stood at 988 s.

Turning to `CCc1noc(NC(C)=O)c1-c1ccc(C)c(S(=O)(=O)Nc2ccc(C)cc2Cl)c1`, the RP-LC retention time came out at 914 s.

Consider `Cn1c(=O)c(N2CCN(S(=O)(=O)c3ccc4c(c3)CCCC4)CC2)nc2ccncc21`, for which the RP-LC retention time amounted to 765 s.

As to `COc1ccc(CC(=O)N2CCC(c3nncn3C(C)C)CC2)cc1`, the RP-LC retention time was 622 s.

With `O=C(N1CCC(NS(=O)(=O)Cc2ccccc2F)CC1)N1C[C@H]2C[C@H](C1)[C@H]1CCCC(=O)N1C2`, the RP-LC retention time amounted to 689 s.

In turn, `COCc1cc(=O)n(CC(=O)Nc2ccc(F)cc2)c(N)n1` registered an RP-LC retention time of 585 s.

As to `Cc1nc2ccn(Cc3ccco3)c(=O)c2cc1C(=O)NCc1ccc2c(c1)OCO2`, the RP-LC retention time came out at 722 s.

As to `COC1CCC12CCN(C(=O)c1sc(C)nc1C)CC2` (centres undefined), the RP-LC retention time is 728 s.

Compound `CC(C)CCC(=O)NCCc1nc2cccnc2n1-c1ccccc1` showed an RP-LC retention time of 717 s.

`O=C(NC1CC1)[C@@H]1C[C@H](Oc2ccccc2)CN1C(=O)c1cccs1` displayed an RP-LC retention time of 699 s.

The compound `COc1cc(NC(=O)CN2C(=O)C(C)(C)c3cc(Cl)ccc32)cc(OC)c1OC` displayed an RP-LC retention time of 867 s.

`Cc1cc(C)cc(NC(=O)C2CCN(c3c(C(=O)N4CCC(C)CC4)cnc4snc(C)c34)CC2)c1` showed an RP-LC retention time of 1100 s.

`CN1C(=O)c2cc(S(=O)(=O)Nc3ccccc3)ccc2Oc2cccnc21` registered an RP-LC retention time of 862 s.

For `COc1ccc2[nH]cc(CCNC(=O)c3c(-c4cccnc4)noc3C)c2c1`, the RP-LC retention time came out at 667 s.

`Cc1cc(C)n(-c2ccc(C(=O)Nc3ccc(O)cc3)cn2)n1` registered an RP-LC retention time of 738 s.

As to `COC(=O)c1cnc2nc(-c3ccccc3)nn2c1C`, the RP-LC retention time stood at 832 s.

Consider `COc1ccccc1-c1nnc(-c2cc(S(=O)(=O)N3CCOCC3)ccc2F)o1`, for which the RP-LC retention time turned out to be 828 s.

Regarding `CCOc1ccc(NC(=O)c2cnc(N3CCN(c4ccc(OC)cc4)CC3)nc2N)cc1`, the RP-LC retention time turned out to be 767 s.

In turn, `CN(C)c1ncncc1N1CCC(C(=O)N2CCN(c3ccc(Cl)cc3)CC2)CC1` showed an RP-LC retention time of 692 s.

The compound `Cc1ccc(S(=O)(=O)N2CCc3c(c(-c4nnc(-c5ccccc5)o4)nn3C)C2)cc1C` gave an RP-LC retention time of 1020 s.

The values are drawn from the METLIN SMRT retention time set (Domingo-Almenara et al. 2019).
